Test results published in US11564394B2, “Distorted gold (I)-phosphine complexes and methods for use as antifungal agents” (University of Kentucky Research Foundation, priority 2019, dated 2023).
In brackets after ≈: the same amount, converted by molar mass. Where two headings read alike, the source gives them in different places.

How the values were obtained:
Candida biofilms = details: FDA-approved antifungal agents; cited from earlier work
[1] = tested on: C. auris AR Bank #0390 (strain L); test: Time-kill assay; format: cell-based, Candida auris; details: 1×MIC
[2] = tested on: murine and human red blood cells (RBCs)
Procedure: The RBCs were resuspended in PBS to achieve a cell concentration of on the order of 10^7 cells/mL. Compounds were dissolved at concentration of 3.14 mg/mL (200×) in DMSO. Serial double dilutions were made in DMSO. A 1:100 dilution of compound in PBS was added to 100 of RBCs in a 96-well plate (total volume of 200 μL). Compounds were tested in the range of 0.06-15.6 μg/mL in quadruplicate with 0.5% DMSO and ˜5×10^6 RBCs per tube. The RBCs were also treated with 1% Triton-X® (positive control) and PBS (negative control). The RBCs were treated for 30 min at 37° C. and the absorbance was read at 595 nm. Hemolysis is visually observed by a decrease in optical density of the wells (turbid, dark red to transparent pink). Percent hemolysis (FIG. 5A-B) was calculated using this equation after subtraction of the background absorbance ([…]): […]

[3] = tested on: C. auris AR Bank # 0389 (strain VIII); test: MIC determination (broth microdilution); format: cell-based, Candida auris; details: strain VIII = C. auris AR Bank # 0389; MIC-0; 48 h (CAS read at 24 h)
patients = details: 6 mg daily dose, oral; cited from earlier work
[4] = tested on: C. glabrata ATCC 2001 (strain H); details: subcultures exposed to ½ MIC
Candida spp. biofilms = details: biofilms of Candida spp.
Procedure: For assays with a pre-formed biofilm, 100 μL of fungal cells were aliquoted in a 96-well plate, leaving one column empty for the sterile control. After 24 h incubation at 37° C., visible biofilms had formed in the well. The biofilm was washed three times with 100 μL of PBS. […] Plates were incubated at 37° C. for 24 h. Finally, the plates were washed three times with PBS before adding 100 μL of XTT dye. The XTT was prepared by dissolving XTT at 0.5 mg/mL concentration in sterile PBS. Before adding to a plate, 1 μL of 10 mM menadione in acetone was added to 10 mL of the 0.5 mg/mL solution of XTT. After addition of XTT (containing menadione), the plates were incubated for 3 h at 37° C. in the dark. 80 μL of liquid from each well was transferred to a new plate and then with the plate reader for absorbance at 450 nm. For these experiments, we determined the sessile MIC (SMIC90), which is defined as the compound concentration required to inhibit the metabolic activity of biofilm by 90% compared to the growth control (Table 3). […] Each assay was performed in duplicate.

[5] = tested on: C. albicans ATCC 10231 (strain B); details: subcultures exposed to ½ MIC
[6] = tested on: Candida strains B, H, K and L; details: for mode of killing (time-kill): 1× and 2×MIC, 24 h; for decrease of fungal colony forming units (CFU): by the 3 h time point, no increase over 24 h
Procedure: The protocol for time-kill assays followed methods previously described with minor modifications.^34,90 Overnight cultures were grown in YEPD medium at 35° C. with shaking at 200 rpm. The overnight cultures were diluted in RPMI 1640 medium to an OD600 of 0.125 (˜x10^6 CFU/mL). Then, 200 μL of cells were added to 4.8 mL of RPMI 1640 medium in sterile culture tubes to afford a fungal cell concentration ˜1×10^5 CFU/mL. Compounds were then added to the fungal cells. […] Treated fungal cultures were incubated in the culture tubes at 35° C. with 200 rpm shaking for 24 h. Samples were aliquoted from the different treatments at regular time points (0, 3, 6, 9, 12, and 24 h) and plated in duplicate onto PDA plates. For each time point, cultures were vortexed, 100 μL of culture was aspirated, and 10-fold serial dilutions were made in sterile ddH2O. From the appropriate dilutions, 100 μL of fungal suspension was spread on agar plates and incubated at 35° C. for 48 h before colony counts were determined. Only plates containing between 30 and 300 colonies were counted, making 30 CFU/mL the limit of detection. At 24 h, 50 μL of sterile 2 mM resazurin in phosphate buffered saline (PBS) was added to the treatments and incubated at 35° C. with 200 rpm shaking for 2 h in the dark for visual inspection.

[7] = tested on: C. auris AR Bank #0384 (strain K)
Procedure: (§1) The protocol for time-kill assays followed methods previously described with minor modifications.^34,90 Overnight cultures were grown in YEPD medium at 35° C. with shaking at 200 rpm. The overnight cultures were diluted in RPMI 1640 medium to an OD600 of 0.125 (˜x10^6 CFU/mL). Then, 200 μL of cells were added to 4.8 mL of RPMI 1640 medium in sterile culture tubes to afford a fungal cell concentration ˜1×10^5 CFU/mL. Compounds were then added to the fungal cells. […] Treated fungal cultures were incubated in the culture tubes at 35° C. with 200 rpm shaking for 24 h. Samples were aliquoted from the different treatments at regular time points (0, 3, 6, 9, 12, and 24 h) and plated in duplicate onto PDA plates. For each time point, cultures were vortexed, 100 μL of culture was aspirated, and 10-fold serial dilutions were made in sterile ddH2O. From the appropriate dilutions, 100 μL of fungal suspension was spread on agar plates and incubated at 35° C. for 48 h before colony counts were determined. Only plates containing between 30 and 300 colonies were counted, making […] the limit of detection. At 24 h, 50 μL of sterile 2 mM resazurin in phosphate buffered saline (PBS) was added to the treatments and incubated at 35° C. with 200 rpm shaking for 2 h in the dark for visual inspection.

[8] = tested on: C. albicans ATCC 10231 (strain B)
Procedure: as §1

Compound: C[C@@H]1[C@H](O)[C@@H](C)/C=C/C=C/C=C/C=C/C=C/C=C/C=C/[C@H](O[C@@H]2O[C@H](C)[C@@H](O)[C@H](N)[C@@H]2O)C[C@@H]2O[C@](O)(C[C@@H](O)C[C@@H](O)[C@H](O)CC[C@@H](O)C[C@@H](O)CC(=O)O[C@H]1C)C[C@H](O)[C@H]2C(=O)O [AmB, amphotericin B, reference compound]
- SMIC90 (literature) (Candida biofilms): 0.5 to 128 µg/mL
- time at which the limit of detection was reached [1]: 9 h
- hemolysis ([2]; at 7.8 μg/mL): 30-60%
- hemolysis ([2]; at 15.6 μg/mL): 100%
- MIC [3]: 1.95 µg/mL (≈ 2.11 µM)
- MIC (in parentheses) [3]: 2.1 µM (≈ 1.94 µg/mL)

Compound: CC(=O)OC[C@H]1O[C@@H]([S-])[C@H](OC(C)=O)[C@@H](OC(C)=O)[C@@H]1OC(C)=O.CCP(CC)CC.[Au+] [Auranofin, auranofin, reference compound]
- tolerability in patients (patients): well-tolerated
- hemolytic activity ([2]; at 15.6 μg/mL): no hemolytic activity

Compound: bis-[1,2-bis[(2R,5R)-2,5-dimethylfphospholano]benzene]gold(1) [Compound 6]
- changes in MIC values over fifteen serial passages [4]: no significant changes in MIC values
- activity against biofilms (Candida spp. biofilms): good activity
- changes in MIC values over fifteen serial passages [5]: no significant changes in MIC values
- mode of killing (time-kill) [6]: fungicidal
- decrease of fungal colony forming units (CFU) [6]: 102 CFU/mL
- time at which the limit of detection was reached ([7]; 1×MIC): 6 h
- time at which the limit of detection was reached ([8]; 2×MIC): 3 h
- MIC [3]: 1.95 µg/mL
- MIC (in parentheses) [3]: 2.3 µM

Compound: bis-[1,2-bis[(2S,5S)-2,5-dimethylphospholano]benzene]gold(I) [Compound 4]
- changes in MIC values over fifteen serial passages [4]: no significant changes in MIC values
- activity against biofilms (Candida spp. biofilms): good activity
- changes in MIC values over fifteen serial passages [5]: no significant changes in MIC values
- mode of killing (time-kill) [6]: fungicidal
- decrease of fungal colony forming units (CFU) [6]: 102 CFU/mL
- time at which the limit of detection was reached ([7]; concentration not specified (tested at 1× and 2×MIC), failed to reach the limit): > 24 h
- time at which the limit of detection was reached ([8]; 1×MIC, limit of detection 30 CFU/mL): 9 h
- MIC [3]: 1.95 µg/mL
- MIC (in parentheses) [3]: 2.3 µM
